# Reference: patent publication US10202347B2, “Compound, production method therefor, and use of said compound” (MICROBIAL CHEMISTRY RESEARCH FOUNDATION, priority 2013, dated 2019)
# Read-outs that look alike come from different tables or passages of the source.
# What was measured:
# [1] = test system: human stomach cancer cells MKN-74; experiment: Anti-cancer activity in vivo, Test Example 2-1: MKN-74 alone, subcutaneous tumor in nude mice; set-up: species or system BALB/c nu/nu nude mice; details: intravenous administration at 12.5 mg/kg, FIGS. 1A, 1B
# Method: BALB/c nu/nu nude mice (female, 5 weeks old, product of Charles River Co.) were bred under the SPF conditions.
# Cultured human stomach cancer cells MKN-74 were trypsinized, and the human stomach cancer cells MKN-74 (8×10^6 cells) peeled off from the culture dish were dispersed in 0.3 mL DMEM containing 10% FBS and mixed with 0.5 mL growth factor-reduced Matrigel (product of BD Biosciences Co.).
# The above mixed cell liquid (0.1 mL) (cancer cells: 1×10^6 cells) was subcutaneously inoculated to the left groin region of the above mice.
# The compound expressed by the Structural Formula (2) or the compound expressed by the Structural Formula (13) was intravenously administered for a predetermined period, and tumor formed under the skin was cut out and measured for weight. Note that, the administration dose of the compound expressed by the Structural Formula (2) or the compound expressed by the Structural Formula (13) was 12.5 mg/kg per administration day.
# Also, a tumor volume was calculated from the following formula referring to the above NPL 1. Tumor volume (mm^3)=(major axis×minor axis^2)/2
# Note that, as controls, those to which physiological saline (vehicle) was administered instead of the compound expressed by the Structural Formula (2) or the compound expressed by the Structural Formula (13) were tested in the same manner.
# [2] = test system: Helicobacter pylori JCM12093 strain; experiment: Measurement of MIC for Helicobacter pylori JCM12093; format: cell-based; details: for MIC: Helicobacter pylori, read-out: MIC Helicobacter pylori JCM 12093; for anti-Helicobacter pylori activity (in words): summary of Table 3, H. pylori JCM12093 and JCM12095 strains
# Method: Each of the above compounds was measured for minimum inhibitory concentration (MIC) for Helicobacter pylori.
# Helicobacter pylori JCM12093 strain and H. pylori JCM12095 strain each were statically cultured in a HP medium (brain heart infusion broth (product of Becton, Dickinson Co.) supplemented with 10% fetal bovine serum (product of Life Technologies Co.)) for 144 hours at 37° C. under microaerobic culture conditions (microaerobic conditions (N2:O2:CO2=85:5:10)).
# After completion of the culturing, the culture was suspended with the HP medium and diluted so that Helicobacter pylori was 2×10^6 CFU/mL to 9×10^6 CFU/mL.
# Each of the test samples (each of the above compounds, clarithromycin, and ampicillin) was prepared with the HP medium to have a concentration of 256 mg/L. From this concentration, the test sample was 2-fold diluted serially in 15 steps to 0.0078 mg/L.
# (§1) The above-diluted culture was added at 50 μL/well to 50 μL/well of the HP medium containing each of the test samples at the above concentrations, and was statically cultured for 144 hours at 37° C. under microaerobic culture conditions (microaerobic conditions (N2:O2:CO2=85:5:10)). After completion of the culturing, the presence or absence of proliferation of each bacterium was visually determined based on turbidity, and the MIC for each bacterial strain was obtained.
# [3] = test system: Staphylococcus aureus FDA209P strain; experiment: Measurement of MIC for Staphylococcus aureus; format: cell-based; details: read-out: MIC Staphylococcus aureus FDA209P
# Method: (§2) Each of the above compounds was measured for minimum inhibitory concentration (MIC) for Staphylococcus aureus and Escherichia coli.
# (§3) Staphylococcus aureus FDA209P strain and Escherichia coli K-12 strain each were cultured under shaking in a nutrient broth medium (polypeptone (product of NIHON PHARMACEUTICAL Co.) 1%, fish extract for bacteria (product of KYOKUTO PHARMACEUTICAL INDUSTRIAL Co.) 1%, and sodium chloride 0.2%) at 37° C. overnight.
# (§4) After completion of the culturing, the culture was diluted with the nutrient broth medium so that the bacteria were 2×10^6 CFU/mL to 9×10^6 CFU/mL.
# (§5) Each of the test samples (each of the above compounds, clarithromycin, and ampicillin) was prepared with the nutrient broth medium to have a concentration of 256 mg/L. From this concentration, the test sample was 2-fold diluted serially in 11 steps to 0.125 mg/L.
# as §1, with “nutrient broth” for “HP”, “cultured” for “cultured for 144 hours”, “overnight.” for “under microaerobic culture conditions (microaerobic conditions (N2:O2:CO2=85:5:10)).”
# [4] = test system: Enterococcus faecalis JCM5803 strain; experiment: Measurement of MIC for Enterococcus faecalis; format: cell-based; details: read-out: MIC Enterococcus faecalis JCM5803
# Method: Each of the above compounds was measured for minimum inhibitory concentration (MIC) for Enterococcus faecalis.
# Enterococcus faecalis JCM5803 strain was cultured under shaking in a heart infusion broth medium (product of Becton, Dickinson Co.) at 37° C. overnight.
# After completion of the culturing, the culture was diluted with the heart infusion broth medium so that the bacteria were 2×10^4 CFU/mL to 9×10^4 CFU/mL.
# Each of the test samples (each of the above compounds, clarithromycin, and ampicillin) was prepared with the heart infusion broth medium to have a concentration of 256 mg/L. From this concentration, the test sample was 2-fold diluted serially in 11 steps to 0.125 mg/L.
# The above-diluted culture was added at 50 μL/well to 50 μL/well of the heart infusion broth medium containing each of the test samples at the above concentrations, and was statically cultured at 37° C. for 18 hours.
# After completion of the culturing, the presence or absence of proliferation of each bacterium was visually determined based on turbidity, and the MIC for each bacterial strain was obtained.
# [5] = test system: Escherichia coli K-12 strain; experiment: Measurement of MIC for Escherichia coli; format: cell-based; details: K12STRAIN, read-out: MIC Escherichia coli K-12
# Method: as §2, §3, §4, §5
# as §1, with “nutrient broth” for “HP”, “cultured” for “cultured for 144 hours”, “overnight.” for “under microaerobic culture conditions (microaerobic conditions (N2:O2:CO2=85:5:10)).”
# [6] = test system: human stomach cancer cells MKN-74 and normal stromal cells derived from the human stomach, Hs738; experiment: Anti-cancer activity in vivo, Test Example 2-2: MKN-74 and stromal cells Hs738, subcutaneous tumor in nude mice; set-up: species or system BALB/c nu/nu nude mice; details: tumor transplanted together with stromal cells Hs738, intravenous administration at 12.5 mg/kg, FIGS. 1C, 1D
# Method: A test was performed in the same manner as in Test Example 2-1 except that the use of the human stomach cancer cells MKN-74 alone in Test Example 2-1 was changed to use of the human stomach cancer cells MKN-74 and the normal stromal cells derived from the human stomach, Hs738.
# Note that, a cell liquid and inoculation of the cell liquid to mice were as follows.
# Cultured human stomach cancer cells MKN-74 and normal stromal cells derived from the human stomach, Hs738 were respectively trypsinized to be peeled off from the culture dishes. The above human stomach cancer cells MKN-74 (8×10^6 cells) and the above normal stromal cells derived from the human stomach, Hs738 (8×10^6 cells) were dispersed in 0.3 mL DMEM containing 10% FBS and mixed with 0.5 mL growth factor-reduced Matrigel (product of BD Biosciences Co.).
# The above mixed cell liquid (0.1 mL) (a mixture of cancer cells: 1×10^6 cells, and stromal cells: 1×10^6 cells) was subcutaneously inoculated to the left groin region of the above mice.
# [7] = JCM12093, HP medium, 144 hours, 37° C., microaerobic
# [8] = nutrient broth medium, 37° C. overnight
# [9] = JCM5803, heart infusion broth medium, 37° C., 18 hours
SMILES,"tumor suppression (tumor volume, tumor weight Day 21) [1]","MIC [2, 7] [µg/mL]","MIC [3, 8] [µg/mL]","MIC [4, 9] [µg/mL]","MIC [5, 8] [µg/mL]",anti-Helicobacter pylori activity (in words) [2],MIC [3] [µg/mL],"MIC ([4]; JCM5803, 18 h) [µg/mL]",MIC [5] [µg/mL],"MIC ([2]; JCM12093, 144 h) [µg/mL]","tumor suppression (tumor volume, tumor weight Day 21) [6]"
CCCCCCCCc1nc2ccccc2c(OCC(=O)O)c1C [Structural Formula (2)],significant suppression,1,> 128,> 128,128,,,,,,
Cc1c(CCCC/C=C/C(C)C)[nH]c2ccccc2c1=O [Structural Formula (3)],,0.008,,> 128,> 128,exhibited anti-Helicobacter pylori activity at low concentrations,> 128,,,,
Cc1c(CC(C)C)[nH]c2ccccc2c1=O [Structural Formula (4)],,0.5,,> 128,128,,128,,,,
CCCCCCCCc1c(C)c(=O)c2ccccc2n1CC(=O)OC [Structural Formula (5)],,2,,> 128,> 128,,> 128,,,,
CCCCCCCCc1c(C)c(=O)c2ccccc2n1CC(=O)O [Structural Formula (6)],,1,,> 128,128,,128,,,,
CCCCCCCc1c(C)c(=O)c2ccccc2n1CN=C=S [Structural Formula (11)],,0.016,4,,,exhibited anti-Helicobacter pylori activity at low concentrations,,> 128,> 128,,
CCCCCCCc1c(C)c(=O)c2ccccc2n1CNC(=S)SC [Structural Formula (12)],,,,> 128,> 128,exhibited anti-Helicobacter pylori activity at low concentrations,> 128,,,0.03,
CCCCCCCc1c(C)c(=O)c2ccccc2n1CN=C(SC)SC [Structural Formula (13)],,,,> 128,> 128,,4,,,2,significant suppression
